For ten compounds, MIC results are on record in publication PMC6063448, “Antimicrobial activity of linear lipopeptides derived from BP100 towards plant pathogens” (PLoS ONE, 2018).

Common to all, as to format: cell-based
In experiment [1] the test system is Erwinia amylovora PMV6076. In words: MIC, growth inhibition in microtiter plates (TSB). The following applies: Ea, 25°C, 48 h, OD 600 nm, lowest concentration with no growth, given as interval of tested concentrations, three replicates, experiment repeated twice. The method in brief: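 Bacteria were scraped from agar after 24 h at 25°C, or 48 h for X. fragariae, and suspended in sterile water at 10^8 CFU mL^-1. Each suspension was combined with peptide dilution in Trypticase Soy Broth and incubated 48 h at 25°C. Growth was followed by absorbance at 600 nm.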

Experiment [2] has as its system Xanthomonas fragariae Xf349-9A. In words: MIC, growth inhibition in microtiter plates (TSB). The following applies: Xf, 25°C, 48 h, OD 600 nm, lowest concentration with no growth, given as interval of tested concentrations, three replicates, experiment repeated twice. The method in brief:
(§1)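 Peptides, dissolved in water at 1 mM and filter-sterilized, were diluted and mixed with bacterial suspension (10^8 CFU mL^-1 before mixing) in TSB. Plates were incubated at 25°C with shaking, and OD600 was read hourly for 48 h. MIC was the lowest concentration with no growth at the end.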

Experiment [3] relates to Xanthomonas arboricola pv. pruni CFBP5563. Nature of the experiment: MIC, growth inhibition in microtiter plates (TSB). The following applies: Xap, 25°C, 48 h, OD 600 nm, lowest concentration with no growth, given as interval of tested concentrations, three replicates, experiment repeated twice. The method in brief: as §1
In experiment [4] the test system is Pseudomonas syringae pv. syringae EPS94. In words: MIC, growth inhibition in microtiter plates (TSB). The following applies: Pss, 25°C, 48 h, OD 600 nm, lowest concentration with no growth, given as interval of tested concentrations, three replicates, experiment repeated twice. The method in brief:
as §1

Experiment [5] has as its system Pseudomonas syringae pv. actinidiae Psa3700.1.1. Nature of the experiment: MIC, growth inhibition in microtiter plates (TSB). The following applies: Psa, 25°C, 48 h, OD 600 nm, lowest concentration with no growth, given as interval of tested concentrations, three replicates, experiment repeated twice. The method in brief:
as §1

Experiment [6] concerns Xanthomonas axonopodis pv. vesicatoria 2133–2. Nature of the experiment: MIC, growth inhibition in microtiter plates (TSB). The following applies: Xav, 25°C, 48 h, OD 600 nm, lowest concentration with no growth, given as interval of tested concentrations, three replicates, experiment repeated twice. The method in brief: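 Agar-grown cells in water (10^8 CFU mL^-1 stock suspension) + serially diluted peptide (1 mM water stock) in TSB; 25°C, 48 h, OD600 hourly; no-growth endpoint gives MIC.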

For experiment [7], the system named is Fusarium oxysporum f. sp. lycopersici FOL 3 race 2. In words: MIC, antifungal growth inhibition in microtiter plates (PDB). The following applies: Fo, 22°C, seven days, OD 600 nm, lowest concentration with no growth, given as interval of tested concentrations, three replicates, experiment repeated twice. The method in brief: (§2)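 Conidial suspensions (10^3 conidia/mL P. expansum, 10^4 F. oxysporum) incubated with peptides in PDB with 0.003% chloramphenicol at 22 °C for seven days, OD600 read every 2 h. MIC is the lowest concentration with no growth at the end; triplicates, experiment repeated twice.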

Experiment [8] has as its system Penicillium expansum EPS26. The description is as above. The following applies: Pe, 22°C, seven days, OD 600 nm, lowest concentration with no growth, given as interval of tested concentrations, three replicates, experiment repeated twice. The method in brief: as §2

With `CCCC(=O)NCCCC[C@H](NC(=O)[C@H](Cc1ccc(O)cc1)NC(=O)[C@H](CCCCN)NC(=O)[C@H](CC(C)C)NC(=O)[C@@H](NC(=O)[C@H](CCCCN)NC(=O)[C@H](CCCCN)NC(=O)[C@H](Cc1ccccc1)NC(=O)[C@H](CC(C)C)NC(=O)[C@H](CCCCN)NC(=O)[C@H](CCCCN)NC(C)=O)[C@@H](C)CC)C(N)=O` [BP390, Ac-KKLFKKILKYK(COC3H7)-NH2], the MIC in experiment [1] lay within 3.1 to 6.2 µM; in experiment [2], 3.1 to 6.2 µM; in experiment [3], 6.2 to 12.5 µM; in experiment [4], 6.2 to 12.5 µM; in experiment [5], 6.2 to 12.5 µM; in experiment [6], 3.1 to 6.2 µM. The MIC in experiment [7] lay in the range of 0.8 to 1.6 µM; in experiment [8], 6.2 to 12.5 µM.

In the case of `CC[C@H](C)[C@H](NC(=O)[C@H](CCCCN)NC(=O)[C@H](CCCCN)NC(=O)[C@H](Cc1ccccc1)NC(=O)[C@H](CC(C)C)NC(=O)[C@H](CCCCN)NC(=O)[C@@H](N)CCCCN)C(=O)N[C@@H](CC(C)C)C(=O)N[C@@H](CCCCN)C(=O)N[C@@H](Cc1ccc(O)cc1)C(=O)N[C@@H](CC(C)C)C(N)=O` [BP100, H-Lys-Lys-Leu-Phe-Lys-Lys-Ile-Leu-Lys-Tyr-Leu-NH2], the MIC in experiment [1] was in the range of 3.1 to 6.2 µM; in experiment [2] it was 3.1 to 6.2 µM; in experiment [3] it was 1.6 to 3.1 µM; in experiment [4] it was 3.1 to 6.2 µM; in experiment [5], 1.6 to 3.1 µM; in experiment [6] it was 3.1 to 6.2 µM. The minimum inhibitory concentration (MIC) was 0.8 to 1.6 µM in experiment [7] and greater than 25 µM in experiment [8].

For the compound `CCCC(=O)NCCCC[C@H](NC(=O)[C@H](CCCCN)NC(=O)[C@H](Cc1ccccc1)NC(=O)[C@H](CC(C)C)NC(=O)[C@H](CCCCN)NC(=O)[C@H](CCCCN)NC(C)=O)C(=O)N[C@H](C(=O)N[C@@H](CC(C)C)C(=O)N[C@@H](CCCCN)C(=O)N[C@@H](Cc1ccc(O)cc1)C(=O)N[C@@H](CC(C)C)C(N)=O)[C@@H](C)CC` [BP385, Ac-KKLFKK(COC3H7)ILKYL-NH2], the MIC in experiment [1] was in the range of 6.2 to 12.5 µM; in experiment [2], 1.6 to 3.1 µM; in experiment [3], 0.8 to 1.6 µM; in experiment [4] it was 6.2 to 12.5 µM; in experiment [5], 6.2 to 12.5 µM; in experiment [6], 0.8 to 1.6 µM. In addition, the values for the MIC in experiment [7] and in experiment [8] were 1.6 to 3.1 µM and 6.2 to 12.5 µM, respectively.

In the case of `CCCCCC(=O)NCCCC[C@H](NC(=O)[C@H](CC(C)C)NC(=O)[C@H](CCCCN)NC(=O)[C@H](CCCCN)NC(C)=O)C(=O)N[C@@H](CCCCN)C(=O)N[C@@H](CCCCN)C(=O)N[C@H](C(=O)N[C@@H](CC(C)C)C(=O)N[C@@H](CCCCN)C(=O)N[C@@H](Cc1ccc(O)cc1)C(=O)N[C@@H](CC(C)C)C(N)=O)[C@@H](C)CC` [BP371, Ac-KKLK(COC5H11)KKILKYL-NH2], the minimum inhibitory concentration (MIC) in experiment [1], in experiment [2], in experiment [3], in experiment [4], in experiment [5] and in experiment [6] was 3.1 to 6.2 µM each time. Moreover, the MIC in experiment [7] lay in the range of 0.8 to 1.6 µM; in experiment [8], 3.1 to 6.2 µM.

Take `CCCC(=O)NCCCC[C@H](NC(=O)[C@@H](NC(=O)[C@H](CCCCN)NC(=O)[C@H](CCCCN)NC(=O)[C@H](Cc1ccccc1)NC(=O)[C@H](CC(C)C)NC(=O)[C@H](CCCCN)NC(=O)[C@H](CCCCN)NC(C)=O)[C@@H](C)CC)C(=O)N[C@@H](CCCCN)C(=O)N[C@@H](Cc1ccc(O)cc1)C(=O)N[C@@H](CC(C)C)C(N)=O` [BP387, Ac-KKLFKKIK(COC3H7)KYL-NH2]: the minimum inhibitory concentration (MIC) in experiment [1] is 3.1 to 6.2 µM; in experiment [2], 1.6 to 3.1 µM; in experiment [3], 3.1 to 6.2 µM; in experiment [4], 3.1 to 6.2 µM; in experiment [5] it was 3.1 to 6.2 µM; in experiment [6], 1.6 to 3.1 µM. Further, the results for the MIC in experiment [7] and in experiment [8] were 0.8 to 1.6 µM and 6.2 to 12.5 µM, respectively.

In the case of `CCCC(=O)NCCCC[C@H](NC(=O)[C@H](CCCCN)NC(=O)[C@H](CC(C)C)NC(=O)[C@@H](NC(=O)[C@H](CCCCN)NC(=O)[C@H](CCCCN)NC(=O)[C@H](Cc1ccccc1)NC(=O)[C@H](CC(C)C)NC(=O)[C@H](CCCCN)NC(=O)[C@H](CCCCN)NC(C)=O)[C@@H](C)CC)C(=O)N[C@@H](CC(C)C)C(N)=O` [BP389, Ac-KKLFKKILKK(COC3H7)L-NH2], the minimal inhibitory concentration (MIC) in experiment [1] is 3.1 to 6.2 µM; in experiment [2], 1.6 to 3.1 µM; in experiment [3] it was 0.8 to 1.6 µM; in experiment [4] it was 6.2 to 12.5 µM; in experiment [5] it was 3.1 to 6.2 µM; in experiment [6], 0.8 to 1.6 µM. In addition, the MIC was in the range of 1.6 to 3.1 µM in experiment [7] and 6.2 to 12.5 µM in experiment [8].

On to `CCCCCCCCCCCC(=O)NCCCC[C@H](NC(=O)[C@H](CC(C)C)NC(=O)[C@@H](NC(=O)[C@H](CCCCN)NC(=O)[C@H](CCCCN)NC(=O)[C@H](Cc1ccccc1)NC(=O)[C@H](CC(C)C)NC(=O)[C@H](CCCCN)NC(=O)[C@H](CCCCN)NC(C)=O)[C@@H](C)CC)C(=O)N[C@@H](Cc1ccc(O)cc1)C(=O)N[C@@H](CC(C)C)C(N)=O` [BP400, Ac-KKLFKKILK(COC11H23)YL-NH2], for which the minimal inhibitory concentration (MIC) is greater than 25 µM in experiment [1]; 3.1 to 6.2 µM in experiment [2]; 1.6 to 3.1 µM in experiment [3]; greater than 25 µM in experiment [4]; greater than 25 µM in experiment [5]; 1.6 to 3.1 µM in experiment [6]. The MIC is 6.2 to 12.5 µM in experiment [7] and greater than 25 µM in experiment [8].

As for `CCCCCC(=O)NCCCC[C@H](NC(=O)[C@H](Cc1ccc(O)cc1)NC(=O)[C@H](CCCCN)NC(=O)[C@H](CC(C)C)NC(=O)[C@@H](NC(=O)[C@H](CCCCN)NC(=O)[C@H](CCCCN)NC(=O)[C@H](Cc1ccccc1)NC(=O)[C@H](CC(C)C)NC(=O)[C@H](CCCCN)NC(=O)[C@H](CCCCN)NC(C)=O)[C@@H](C)CC)C(N)=O` [BP378, Ac-KKLFKKILKYK(COC5H11)-NH2], the minimum inhibitory concentration (MIC) in experiment [1] fell in the range of 3.1 to 6.2 µM; in experiment [2] it was 3.1 to 6.2 µM; in experiment [3], 3.1 to 6.2 µM; in experiment [4], 6.2 to 12.5 µM; in experiment [5], 3.1 to 6.2 µM; in experiment [6], 3.1 to 6.2 µM. Also, the minimum inhibitory concentration (MIC) in experiment [7] lay within 0.8 to 1.6 µM; in experiment [8], 3.1 to 6.2 µM.

In the case of `CCCCCC(=O)NCCCC[C@H](NC(=O)[C@H](CCCCN)NC(=O)[C@H](CCCCN)NC(=O)[C@H](Cc1ccccc1)NC(=O)[C@H](CC(C)C)NC(=O)[C@H](CCCCN)NC(=O)[C@H](CCCCN)NC(C)=O)C(=O)N[C@@H](CC(C)C)C(=O)N[C@@H](CCCCN)C(=O)N[C@@H](Cc1ccc(O)cc1)C(=O)N[C@@H](CC(C)C)C(N)=O` [BP374, Ac-KKLFKKK(COC5H11)LKYL-NH2], the MIC in experiment [1] was 3.1 to 6.2 µM; in experiment [2], 3.1 to 6.2 µM; in experiment [3], 6.2 to 12.5 µM; in experiment [4] it was 6.2 to 12.5 µM; in experiment [5] it was 3.1 to 6.2 µM; in experiment [6] it was 6.2 to 12.5 µM. In addition, the minimal inhibitory concentration (MIC) in experiment [7] was 0.8 to 1.6 µM; in experiment [8], greater than 25 µM.

On to `CCCC(=O)NCCCC[C@H](NC(=O)[C@H](CCCCN)NC(C)=O)C(=O)N[C@@H](CC(C)C)C(=O)N[C@@H](Cc1ccccc1)C(=O)N[C@@H](CCCCN)C(=O)N[C@@H](CCCCN)C(=O)N[C@H](C(=O)N[C@@H](CC(C)C)C(=O)N[C@@H](CCCCN)C(=O)N[C@@H](Cc1ccc(O)cc1)C(=O)N[C@@H](CC(C)C)C(N)=O)[C@@H](C)CC` [BP381, Ac-KK(COC3H7)LFKKILKYL-NH2], for which the MIC lay in the range of 3.1 to 6.2 µM in experiment [1]; 1.6 to 3.1 µM in experiment [2]; 3.1 to 6.2 µM in experiment [3]; 3.1 to 6.2 µM in experiment [4]; 3.1 to 6.2 µM in experiment [5]; 1.6 to 3.1 µM in experiment [6]. In addition, the values for the MIC in experiment [7] and in experiment [8] were 0.8 to 1.6 µM and 1.6 to 3.1 µM, respectively.
